Patent EP0497921B1, “METHOD FOR INHIBITING ENZYMATIC SYNTHESIS OF NUCLEIC ACIDS USING ISOPSORALENS” (ISAACS, Stephen T., priority 1989, dated 1991)

Assays:
[1] = tested on: E. Coli DNA Polymerase; assay: Primer extension on site-specific 71-mer monoadduct template; format: biochemical; details: 37°C for 0, 5 or 15 minutes, PAGE, autoradiography
Description: (§1) The sequences that are presented in Figure 26 describe several oligonucleotides that are used in the synthesis of either a normal 71-mer or the identical 71-mer containing a site-specifically placed psoralen or isopsoralen monoadduct. The 71-mer is a sub-sequence of the Human Immunodeficiency Virus (HIV) sequence. (An HIV DNA system is described in a co-pending application, Serial No. 225,725.) SK-39 is a primer oligonucleotide that is complementary to the 3' end of the 71-mers. This primer oligonucleotide can be extended on the 71-mer template to make a complementary strand of the 71-mer.
(§2) Preparation of 71-mers which contain site-specific monoadducts involves 1) preparation of different 15-mer monoadducts from the same unmodified 15-mer (HRI-42), and 2) ligation of the different 15-mer monoadducts to the same 56-mer "extender oligonucleotide" (HRI 102) using a 25-mer oligonucleotide (HRI-45) as a splint. The arrows in Figure 27 indicate the direction of synthesis, while the monoadduct is indicated by a short line that is perpendicular to the oligomer. While each of the 71-mer monoadducts contains the adduct at a base position that is greater than 56 bases from the 5' end, the precise position of the monoadduct is not meant to be indicated.
(§3) To prepare the 15-mer adducts, the 15-mer was incubated with a complementary 10-mer along with psoralen or isopsoralen under hybridization conditions. The mixture was then irradiated to provide the monoadducted 15-mer. While the invention is not dependent on knowing the precise mechanism of coupling, it has generally been believed that the 10-mer directs the isopsoralen to a single TpA site within the double-stranded helix formed by the 10-mer/15-mer hybrid. After isolation of an HPLC peak believed to contain the 15-mer with a single psoralen or isopsoralen monoadduct, these 15-mer monoadducts were ligated to a 56-mer extender in order to provide the monoadducted 71-mers for use as polymerase templates. The ligation reaction therefore utilized three oligonucleotides: the particular psoralen or isopsoralen monoadducted 15-mer, the 56-mer extender, and the 25-mer splint. The ligation complex was hybridized together then ligated. The ligated product was then isolated as a single band by denaturing PAGE.
(§4) To provide highly purified 71-mers which contain a single monoadduct, it was necessary to provide highly purified 15-mer monoadduct prior to the ligation step. This was accomplished by repurification of the HPLC purified monoadducted 15-mers by PAGE. In this way, essentially all the non-monoadducted 15-mer was removed prior to ligation. Separation of 15-mer monoadduct from unmodified 15-mer was readily accomplished by PAGE (while the same technique is not effective for separation of the corresponding unmodified 71-mer and monoadducted 71-mer sequences). In this manner, exceedingly pure monoadducted 71-mers were produced for the primer extension reactions; monoadducted 71-mers (as well as unmodified 71-mers) are used in template-dependent enzymatic extension experiments in examples 43-47 below.
(§5) In this experiment, monoadducted 71-mers (as well as unmodified 71-mers) were used in template-dependent enzymatic extension. AMIP, AMDMIP, and MIP 71-mer monoadducts were made as in Example 17. […] Note that the 3' end of the 71-mer (HRI 55) is complementary to the primer (SK-39) (see also Figure 26). Each of the extension experiments were run at 37°C for 0, 5 or 15 minutes. Each of the reactions were initiated by providing the templates and deoxyribonucleoside 5'-triphosphates (dATP, dGTP, dCTP, and dTTP are collective abbreviated as dNTPs), and by adding the particular polymerase last to start the reaction. For detection, the primer extension reaction utilized 5' ^32P-labelled primer. The reactions were stopped by adding EDTA. Analysis was by denaturing PAGE followed by autoradiography. […]

[2] = tested on: Klenow Polmerase; assay: as above; format: biochemical; details: 37°C for 0, 5 or 15 minutes, PAGE, autoradiography
Description: as §1, §2, §3, §4, §5

[3] = tested on: Reverse Transcriptase; assay: as above; format: biochemical; details: 37°C for 0, 5 or 15 minutes, PAGE, autoradiography
Description: as §1, §2, §3, §4, §5

[4] = tested on: T4 Polymerase; assay: as above; format: biochemical; details: 37°C for 0, 5 or 15 minutes, PAGE, autoradiography
Description: as §1, §2, §3, §4, §5

[5] = tested on: calf thymus DNA; assay: Equilibrium dialysis, dark binding (association constant); details: for Ka: 4°C, five days, dark, isopsoralen:DNA base pair ratio 1:15
Experimental: Equilibrium Dialysis was used to determine the association ("dark binding") constants of AMIP, AMDMIP and MIP with calf thymus DNA. The tritium labelled isopsoralens were used for the experiment. The method was a modification of that of Isaacs et al. Biochemistry 16, 1058-1066 (1977).
Spectrapor 2 dialysis tubing (Spectrum) was pretreated by boiling in saturated sodium bicarbonate then rinsed thoroughly with double distilled water. Calf thymus DNA (Sigma) was prepared at a concentration of 50 µg/ml in 1 X TE. The samples were prepared by placing 1.0 ml of the DNA solution inside the bag and using enough isopsoralen to provide an isopsoralen:DNA base pair ratio of 1:15. The samples were prepared with the tritiated isopsoralen ("Drug") placed either inside or outside
of the dialysis bag (each sample was placed in a scintillation vial containing a small magnetic stir bar). The samples were stirred at 4°C for five days in the dark. After this period the bags were removed, opened, and the radioactivity inside and outside the bag determined by scintillation counting. The concentration of the DNA was determined by measuring optical density at 260 nm. The […] constant (Ka) was calculated from this information (Table 9). Preparing the samples in duplicate with the isopsoralen both inside and outside the dialysis bag provided a check that the system had come to equilibrium at the end of the dialysis period (the amount of isopsoralen inside and outside the bag at equilibrium should be, and was, the same in both cases).
The association constant, Ka is defined here as Ka = ([P:DNA])/([P] [DNA]) [formula] for the reaction P + DNA = P:DNA where p = free drug in solution, DNA = DNA binding site for the drug, and P:DNA = drug associated with the DNA. The following summarizes the Ka values determined for the compounds: […]

[6] = tritiated drug placed inside dialysis bag
[7] = tritiated drug placed outside dialysis bag

Sequence of E. Coli DNA Polymerase (P00582 whole entry): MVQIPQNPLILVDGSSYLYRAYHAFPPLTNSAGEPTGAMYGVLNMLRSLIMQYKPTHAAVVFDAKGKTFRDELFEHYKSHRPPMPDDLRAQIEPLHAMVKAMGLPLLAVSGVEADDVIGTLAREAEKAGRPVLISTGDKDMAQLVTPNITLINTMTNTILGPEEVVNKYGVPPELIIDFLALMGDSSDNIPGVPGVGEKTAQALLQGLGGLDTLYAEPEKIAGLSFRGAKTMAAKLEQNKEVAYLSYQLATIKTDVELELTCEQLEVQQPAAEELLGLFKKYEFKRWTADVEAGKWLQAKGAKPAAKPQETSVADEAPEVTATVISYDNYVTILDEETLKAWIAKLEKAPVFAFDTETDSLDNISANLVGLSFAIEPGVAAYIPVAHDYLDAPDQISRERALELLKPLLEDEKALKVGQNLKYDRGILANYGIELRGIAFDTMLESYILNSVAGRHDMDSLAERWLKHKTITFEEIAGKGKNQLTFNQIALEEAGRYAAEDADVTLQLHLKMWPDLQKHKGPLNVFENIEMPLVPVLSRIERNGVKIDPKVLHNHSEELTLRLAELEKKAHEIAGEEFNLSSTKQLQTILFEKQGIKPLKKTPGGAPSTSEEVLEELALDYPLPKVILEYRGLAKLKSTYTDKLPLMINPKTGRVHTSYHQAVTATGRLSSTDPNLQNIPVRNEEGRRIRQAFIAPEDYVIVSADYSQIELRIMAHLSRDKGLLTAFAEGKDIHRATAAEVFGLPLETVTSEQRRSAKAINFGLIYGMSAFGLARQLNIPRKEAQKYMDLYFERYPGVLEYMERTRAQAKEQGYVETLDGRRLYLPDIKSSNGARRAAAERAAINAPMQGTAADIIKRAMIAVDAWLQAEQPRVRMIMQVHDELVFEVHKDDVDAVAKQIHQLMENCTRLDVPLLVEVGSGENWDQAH

Compound | polymerase stop at adduct (primer extension) [1] | polymerase stop at adduct (primer extension) [2] | polymerase stop at adduct (primer extension) [3] | polymerase stop at adduct (primer extension) [4] | Ka [5, 6] | Ka [5, 7] | Ka relative to AMDMIP ([5]; compared with AMDMIP) [%]
4'-Aminomethyl-4,5'-dimethylisopsoralen [AMDMIP] | complete stop | complete stop | complete stop | complete stop | 7.66 x 10^4 | 1.07 x 10^5 | 
5-Aminomethylisopsoralen [AMIP] | not complete stops | not complete stops | complete stops | complete stops | 2.96 x 10^4 | 2.21 x 10^4 | 28
Cc1cc2occc2c2oc(=O)ccc12 [MIP, 5-Methylisopsoralen] | not complete stops | not complete stops | complete stops | complete stops | 9.08 x 10^3 | 2.07 x 10^3 | 
